Reference: PubChem BioAssay AID179 (DTP/NCI, 2004)
Values joined by “and” are separate entries in the source; they are usually repeats but may differ in a detail not shown here. Equal entries are not always repeated. Active and inactive are the calls of the source.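 Rule for the calls: active = compounds giving half or more protection of infected cells from virus-caused growth loss, again on retest; inactive = the rest.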 Where a SMILES comes first, the peptide text is derived from it. The star is where a group is joined. Fmoc = O=C(OCC1c2ccccc2-c2ccccc21)*; Boc = CC(C)(C)OC(=O)*; OtBu = CC(C)(C)O*

Test system: CEM cells HIV-1 protection, formazan growth assay
Assay: NCI AIDS Antiviral Assay
Conditions: for IC50: measured here: growth of uninfected CEM cells
In short: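 CEM (human) cells, HIV-1 infected vs uninfected, 5-point dosing, formazan growth read-out. Retest threshold 50% protection.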

| SMILES | EC50 [µM] | IC50 | outcome |
| --- | --- | --- | --- |
| CCC(=O)C(CCN1CCC(N2C(=O)C(CCC#N)c3ccccc32)CC1)(c1ccccc1)c1ccccc1 (configuration not stated) | > 200 | 28.8 µM | – |
| Cc1cn(CC2=NCC(C)(C)CN2)c(=O)[nH]c1=O | > 200 | > 200 µM | – |
| CC1CCN(CC(=O)N2c3ccccc3Sc3cc4ccccc4cc32)CC1 | > 151 | > 151 µM | – |
| CC(O)CN(CC(C)O)N(CC(C)O)CC(C)O (configuration not stated) | > 955 | 219 µM | – |
| Cn1cc(NC(=O)Nc2cc(C(=O)Nc3cc(C(=O)Nc4ccc5c(S(=O)(=O)O)cccc5c4S(=O)(=O)O)n(C)c3)n(C)c2)cc1C(=O)Nc1cc(C(=O)Nc2ccc3c(S(=O)(=O)O)cccc3c2S(=O)(=O)O)n(C)c1 | 22.9 | 148 µM | – |
| O=[N+]([O-])c1cccc2nccc(NCCN3CCOCC3)c12 | > 200 | 10 µM | – |
| N#Cc1c(N)c(C(=O)Nc2ccccc2)n2c1CCCC2 | > 200 | > 200 µM | – |
| COc1cccc2ccc3c(c12)C(=O)OC31CCc2c(C)cccc21 (configuration not stated) | – | – | inactive |
| CC(C)(C)C1CCC2(CC1)c1[nH]c3ccccc3c1C1(CCC(C(C)(C)C)CC1)c1[nH]c3ccccc3c12 (configuration not stated) | > 7.41 | > 7.41 µM | – |
| Cn1c2c(c(=O)[nH]c1=O)OCN(Cc1ccccc1)C2 | > 251 | 29.5 µM | – |
| CCOC(=O)C1(Br)C(c2ccccc2)NC(=O)N(C2OC(COC(=O)c3ccccc3)C(OC(=O)c3ccccc3)C2OC(=O)c2ccccc2)C1(C)Br (configuration not stated) | > 15.8 | > 15.8 µM | – |
| COc1ccc(C(=O)c2ccccc2O)c(O)c1 | > 200 | > 100 µM | – |
| Nc1nc(Cl)cc(NC23CC4CC(CC(C4)C2)C3)n1 | > 200 | > 200 µM | – |
| CC(C)OP(=O)(OC(C)C)/C(=N/Nc1ccc([N+](=O)[O-])cc1)NNC(=O)c1ccccc1 | > 40.7 | 17 µM | – |
| O=C1NC(=O)c2ccc3c4c(ccc1c24)C(=O)NC3=O | > 200 | > 200 µM | – |
| CC(C#N)(c1ccccc1)N(CCc1ccccc1)C(=O)Oc1ccccc1 (configuration not stated) | > 200 | > 200 µM | – |
| Cn1c(O)c(N=Nc2ccccc2[N+](=O)[O-])c2ccccc21 | > 200 | > 200 µM | – |
| Nc1ccc(/C=C/c2ccc(N)cc2S(=O)(=O)O)c(S(=O)(=O)O)c1 | – | – | inactive |
| NC1=Nc2ccccc2Sc2nncn21 | > 200 | 151 µM | – |
| COc1cc2c(cc1OC)C(Cc1cc(OCc3ccccc3)c(OC)cc1N)N(C)CC2 (configuration not stated) | – | – | inactive |
| CN(C)C(=S)SSSC(=S)N(C)C | > 20 | 0.513 µM | – |

| SMILES | EC50 [µM] | IC50 | outcome |
| --- | --- | --- | --- |
| COc1c(C(CC(C)C)OC(C)=O)ccc2c1C(=O)OCc1cc(C)cc(O)c1O2 (configuration not stated) | > 200 | 10.5 µM | – |
| O=C(O)Cc1ccc(-c2cn3c(n2)sc2ccccc23)cc1 | > 200 | > 200 µM | – |
| CC(=O)NC(C=O)C(O[C@H](C)C(=O)NC(C)C(=O)NC(CCC(N)=O)C(=O)OCc1ccccc1)C(O)C(O)COC(=O)CCNc1c2ccccc2nc2cccc([N+](=O)[O-])c12 (some centres not stated) | > 21.4 | 15.1 µM | – |
| O=C(OCc1ccccc1)N1CC[C@@H](O)[C@@H](CNC23CC4CC(CC(C4)C2)C3)C1 | > 631 | 23.4 µM | – |
| CCC(CC)n1cc(C(=O)NC(=O)NCCCCCOC(=O)CCCCCCCCCCC(=O)OCCCCCNC(=O)NC(=O)c2cn(C(CC)CC)c(=O)[nH]c2=O)c(=O)[nH]c1=O | > 20.9 | > 20.9 µM | – |
| CCCCCCCCCCCCCCCCN1C(=O)/C(=C\c2ccc(O)cc2)SC1=Nc1ccccc1 | > 44.7 | > 44.7 µM | – |
| O=C1CCC2CCc3cccc4oc1c2c34 (configuration not stated) | – | – | inactive |
| CC12ON=C(c3ccccc3)N1C=CN1C(c3ccccc3)=NOC12 (configuration not stated) | > 200 | > 200 µM | – |
| CCc1cc(Cc2cc(CC)c(NC(=O)C(=O)CC(=O)c3sc(-c4cccnc4)nc3C)c(CC)c2)cc(CC)c1NC(=O)C(=O)CC(=O)c1sc(-c2cccnc2)nc1C | > 105 | > 105 µM | – |
| CCO/C=C(\C(=O)OC)S(=O)(=O)c1ccc(C)cc1 | > 200 | > 200 µM | – |
| Nc1cc(N2CCCC2)nc(=O)n1Cc1ccccc1 | – | – | inactive |
| CC(=O)NNC(=S)N/C=C(\C#N)S(=O)(=O)c1ccc(C)cc1 | – | – | inactive |
| COc1c(C(=O)/C(=N/Nc2ccccc2)C(C)=O)c(O)c(OC)c2occc12 | > 200 | 38 µM | – |
| C[C@@H]1CC(=O)[C@@]2(C)[C@](O)(CCC3O[C@]32C)[C@@]12CC(c1ccoc1)OC2=O (some centres not stated) | > 200 | 30.9 µM | – |
| O=C(/C=C/c1ccccc1)c1cc(C(=O)/C=C/c2ccccc2)c(O)cc1O | > 200 | 69.2 µM | – |
| Cc1cc(C)c2cnnn2n1 | > 1700 | > 1700 µM | – |
| CCOC(=O)C(=Cc1ccc(Br)cc1)C(=O)OCC | > 57.5 | 11.7 µM | – |
| C[Si](C)(C)CCOCN(C(=O)C1=CCC2(CC1)OCCO2)c1ccccc1I | > 200 | 12.9 µM | – |
| COc1ccc(CN2CCCN(Cc3ccc(OC)cc3)S2)cc1 | > 75.9 | 31.6 µM | – |
| c1ccc2c(c1)Nc1ccccc1[P+]21c2ccccc2Nc2ccccc21 | > 2 | 0.288 µM | – |
| CC(C#N)N(CCc1ccccc1)C(=O)c1ccccc1 (configuration not stated) | > 200 | > 200 µM | – |

| SMILES | EC50 [µM] | IC50 | outcome |
| --- | --- | --- | --- |
| [N-]=[N+]=NC1(Cc2ccccc2)C(=O)c2cccc3c2N(CCC3)C1=O (configuration not stated) | – | – | inactive |
| Brc1ccc2c(-c3csc(-c4c[nH]c5ccccc45)n3)c[nH]c2c1 | > 200 | 10.7 µM | – |
| C=CCCCCCCCCC(=O)NCc1nc2ccccc2[nH]1 | > 200 | 29.5 µM | – |
| CCCCCCCCNC(=O)SCCCC | – | – | inactive |
| O=C(N/N=C/c1cc(Cl)cc(Cl)c1[OH2+])c1ccncc1.O=S(=O)([O-])[O-].[Fe+2] | – | – | inactive |
| Cc1cc(O)cc(O)c1N=Nc1ccc([N+](=O)[O-])cc1 | > 200 | 3.47 µM | – |
| COc1ccc(N2C(=O)C3c4[nH]c5ccccc5c4C4C(C)CCCC4C3C2=O)cc1 (configuration not stated) | > 200 | 8.13 µM | – |
| O=[N+]([O-])c1ccc(-c2ccc(C3=Nn4c(CNc5ccccc5Cl)nnc4SC3)o2)cc1 | > 11.2 | > 11.2 µM | – |
| C=CCN1CC2CN=NC2(C#N)C1 (configuration not stated) | > 200 | > 200 µM | – |
| CC(CC(=O)c1ccccc1)C(Sc1ccccc1)(Sc1ccccc1)Sc1ccccc1 (configuration not stated) | > 200 | > 100 µM | – |
| O=c1c(C(c2ccc([N+](=O)[O-])cc2)c2c(O)c3ccccc3n(-c3ccccc3)c2=O)c(O)c2ccccc2n1-c1ccccc1 | > 11.7 | > 11.7 µM | – |
| CC1=C(C)CC2(SC1)C(=O)c1ccccc1C2=O | – | – | inactive |
| COc1ccc(C(Nc2ccc([N+](=O)[O-])cc2)P(=O)(c2ccccc2)c2ccccc2)cc1 (configuration not stated) | > 200 | 10.5 µM | – |
| CCN(CC)c1ccc(C(=C2C=CC(=[N+](CC)CC)C=C2)c2ccc(N(CC)CC)cc2)cc1 | – | – | inactive |
| Cc1nc(-n2nc(-c3ccccc3)cc2-c2ccccc2)sc1C(=O)/C=C/c1ccc(Cl)cc1 | > 14.8 | > 14.8 µM | – |
| CO[C@@H]1[C@H](O)CC[C@]2(CO2)[C@H]1[C@@]1(C)O[C@@H]1CC=C(C)C | > 200 | 85.1 µM | – |
| O=[N+]([O-])c1cccc2nc3ccccc3c(NCCCN3CCCCC3)c12 | > 2 | 0.0126 µM | – |
| Cc1nc2c(=O)[nH]c3ccccc3c2o1 | > 200 | > 200 µM | – |
| CC1CC2C(=O)NC(=O)C2c2[nH]c3ccccc3c21 (configuration not stated) | – | – | inactive |
| Cc1ccc(N=Nc2c(O)c(S(=O)(=O)O)cc3cc(S(=O)(=O)O)ccc23)c(C)c1 | – | – | inactive |
| C=CNC(=S)N/C=C(\C#N)S(=O)(=O)c1ccc(C)cc1 | > 200 | > 200 µM | – |

| SMILES | EC50 [µM] | IC50 | outcome |
| --- | --- | --- | --- |
| CC(=O)Oc1ccc(S(=O)(=O)c2ccc(OC(C)=O)cc2)cc1 | > 200 | 9.12 µM | – |
| COc1ccc(/C=c2/sc3n(c2=O)NC(c2ccc(Cl)cc2)NN=3)cc1 (configuration not stated) | – | – | inactive |
| Cc1c(N2CCOCC2)nc2ccc(Cl)cc2c1-c1ccccc1 | > 4.27 | > 4.27 µM | – |
| COC(=O)C(=O)C(C(=O)C1=NS(=O)(=O)c2cc(S(N)(=O)=O)c(Cl)cc2N1)c1nc2ccc(C(=O)c3ccccc3)cc2[nH]c1=O (configuration not stated) | > 195 | 49 µM | – |
| CCCCCCCCC1=C(OC)C(=O)c2ccc(Cl)nc2C1=O | – | – | inactive |
| CC(C)(C)OC(=O)CCC(NC(=O)OCC1c2ccccc2-c2ccccc21)C(=O)NC(Cc1c[nH]c2ccccc12)C(=O)NC(CCCCNC(=O)OC(C)(C)C)C(=O)N1CCCC1C(=O)NCC(N)=O (configuration not stated) (Fmoc-E(OtBu)WK(Boc)PG-NH2; configuration not given here) | > 100 | > 100 µM and 44.7 µM | – |
| C=C1C2CCC3(C4C[C@@H]5C6(C)CCCC5([C@H](O4)N4CCO[C@H]46)[C@@H]3C2)C1OC(C)=O (some centres not stated) | > 18.2 | > 18.2 µM | – |
| O=[N+]([O-])c1ccc(Cc2ccccc2)cc1 | > 63.1 | > 63.1 µM | – |
| CCCc1cc(=O)oc2c3c(c4c(c12)OC(C)(C)CC4)O[C@@H](C)[C@H](C)[C@H]3O | > 200 | 33.1 µM | inactive |
| CCOC(=O)C(=O)CC1=NC2CCCCC2N(C)C1=O (configuration not stated) | > 200 | > 200 µM | – |
| Cc1cccc(-c2nnc(-c3nn(-c4ccccc4)c4nc5ccccc5nc34)o2)c1 | > 38.9 | 19.5 µM | – |
| Cc1cccc(NC(=S)Nc2cccc(C)n2)n1 | > 200 | > 200 µM | – |
| CC(=O)OC1Sc2ccccc2C(=O)N2CCCC12 (configuration not stated) | > 200 | > 200 µM | – |
| Cc1ccc(/C=C2\Sc3scc(-c4ccccc4)[n+]3C2=O)cc1 | > 200 | 89.1 µM | – |
| COc1nc(NC2OC(COC(C)=O)C(OC(C)=O)C(OC(C)=O)C2OC(C)=O)c(N=CC=Nc2c(NC3OC(COC(C)=O)C(OC(C)=O)C(OC(C)=O)C3OC(C)=O)nc(OC)[nH]c2=O)c(=O)[nH]1 (configuration not stated) | – | – | inactive |
| COC(=O)CSc1n[nH]c(-c2ccc(O)c([N+](=O)[O-])c2)n1 | > 115 | > 115 µM | – |
| C/C(=N\O)c1sc(-n2nc(-c3ccccc3)cc2-c2ccccc2)nc1C | > 95.5 | 44.7 µM | – |
| Cc1nc2sccn2c1C(=O)NC(=O)Nc1ccc(Cl)cc1 | > 20.4 | > 20.4 µM | – |
